In brackets after ≈: the same amount, converted by molar mass.
Legend:
[1] = Solubility in 20% HPβCD solution (pH modulation protocol); assay type: physicochemical; conditions: for solubility: pH 7.4, aqueous with cosolvent or surfactant or cyclodextrin, thermodynamic from solid, Table 4.3
Procedure, shortened: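 Compound slurried in 20% HPβCD in pH 7.4 PBS, dissolved by raising pH with 10 M NaOH, then brought back to pH 7.5-8.0 with 1 M HCl. Solubility compared with buffer alone.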

[2] = test system: healthy mice; experiment: in vivo; conditions: mouse
Text: Because of the difficulty of repeated tail vein injections in mice, our group is using IP administration of compound.
All of these derivatives are currently being assessed for their maximum tolerated dose (MTD) in healthy mice. Compounds are formulated in HPβCD and delivered by IP injection to two mice once daily for five days.

[3] = test system: NQO1+ cells; experiment: NQO1-dependent lethality to cancer cells in vitro; assay type: cell-based
Text: NQO1 or PARP-1 knockdown spared the short-term lethality of DNQ-treated NQO1+ cells. BAPTA-AM (cytosolic Ca^2+ chelator) and catalase (enzymatic H2O2 scavenger) rescued DNQ-induced lethality by long-term survival assessments.

[4] = test system: A549 NSCLC cells; experiment: A549 subcutaneous xenograft model in nude mice, with or without ionizing radiation; assay type: in vivo, Athymic nude mice; conditions: 5 mg/kg by tail vein on days 1, 3, 5, 7, 9, with or without 2 grays radiation; preliminary
Experimental: We are actively experimenting with DNQ in mouse models of cancer. The Boothman lab has completed a pilot study of DNQ in an A549 subcutaneous xenograft model in nude mice (Blanco et al., Cancer Res. 2010, 70, 3896). […] Athymic nude mice were inoculated with A549 NSCLC cells and established tumors were allowed to grow to ˜200 mm^3. Mice were assigned to one of six treatment groups—four mice per group. […] The doses of DNQ were chosen based on the observation that 10 mg/kg DNQ elicited adverse reactions in mice. The other three groups received the same DNQ regimen and also received 2 grays of ionizing radiation on each treatment day. Tumor volumes were measured over the subsequent weeks (FIG. 3).

[5] = pKa, log P and log D of 4-31 measured by Absorption Systems; assay type: physicochemical
Text: A sample of compound 4-31 was delivered to Absorption Systems, a company that specializes in preclinical formulation and stability studies. […] They measured a few physical properties of 4-31, including pKa, log P and log D. Through potentiometric titrations they measured the pKa of 4-31 to be 8.0.

[6] = test system: DNA single strand damage, base lesions and double strand breaks; experiment: DNA damage in vitro (alkaline comet assays, nuclear staining of DSB markers); assay type: cell-based; conditions: data not shown
[7] = Stability during incubation in plasma, whole blood and liver microsomes; assay type: in vitro ADME; conditions: rat, dog, and human
Experimental: Absorption Systems measured the stability of 4-31 during incubation in rat, dog, and human plasma, whole blood, and liver microsomes. […] This is in strong contrast top-lap, which has been reported to be completely degraded within about 30 min in whole blood.

[8] = 20% HPβCD in pH 7.4 PBS, 20% HPβCD

SMILES: Cc1cc(=O)[nH]c2c1C(=O)c1c(C)cc(=O)n(C)c1C2=O [DNQ, Deoxynyboquinone, reference compound]
- fold increase in solubility in HPβCD over PBS alone ([1]; 20% HPβCD): 30 fold
- solution concentration in HPβCD ([1]; 20% HPβCD in pH 7.4 PBS): 3.3 mM
- solubility [1, 8]: 3.3 mM (≈ 938 µg/mL)
- solution concentration a 40% HPβCD solution would permit ([1]; 40% HPβCD, linear extrapolation): 6.6 mM
- dose that elicited adverse reactions in mice [2]: 10 mg/kg
- phenotype in mice at the MTD ([2]; ip): lethargic and unresponsive to touch
- LD90 ([3]; 2 hour exposure of NQO1+ cells): 50 to 250 nM
- potency compared to β-lapachone ([3]; cancer cell types, NQO1-dependent): 20- to 100 fold
- rate of tumor growth [4]: slower the rate of tumor growth relative to control

SMILES: Cc1cc(=O)[nH]c2c1C(=O)c1c(C)cc(=O)n(CC(C)C)c1C2=O [Compound 87]
- logP ([5]; octanol/0.15 M KCl, unionized compound): 1.8
- logD ([5]; pH 3.0, octanol/0.15 M KCl): 1.78
- logD ([5]; pH 4.0, octanol/0.15 M KCl): 1.78
- logD ([5]; pH 6.8, octanol/0.15 M KCl): 1.76
- logD ([5]; pH 7.0, octanol/0.15 M KCl): 1.75
- logD ([5]; pH 8.0, octanol/0.15 M KCl): 1.49
- logD ([5]; pH 9.0, octanol/0.15 M KCl): 0.76
- pKa ([5]; potentiometric titrations, N—H): 8
- solubility [1, 8]: 13 mM (≈ 4240 µg/mL)
- DNA single strand damage and base lesions ([6]; alkaline comet assays): extensive initial DNA single strand damage and base lesions
- delay of DNA double strand break formation after initial DNA SSBs and base lesions [6]: 15 to 30 min
- stability in liver microsomes ([7]; 1 hour): no sign of degradation
- stability in plasma or whole blood ([7]; 2 hours): no sign of degradation

Reference: US10285986B2, “Compounds and anti-tumor NQO1 substrates” (The Board of Trustees of the University of Illinois, priority 2011, dated 2019)
